{"source": "the supplement of paper PMC10307832", "assay_in_all_cases": "relative viability (nuclei count vs DMSO), 5 days (fraction); higher = more cells survive", "key": {"NCI-H650": {"system": "NCI-H650", "in_short": "(§1)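 Medians of duplicate plates are given as relative viability. That measure is the nuclei count in treated wells divided by the count in vehicle wells. Counts were taken on 4× images of lung cancer cell lines in 1536-well plates, 5 days after pin-tool dosing the day after seeding with one drug alone or a fixed anchor-drug dose plus five library-drug doses (not always all listed) in √10 steps.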"}, "CAL-12T": {"system": "CAL-12T", "in_short": "as §1"}, "LCLC-103H": {"system": "LCLC-103H", "in_short": "as §1"}, "NCI-H596": {"system": "NCI-H596", "in_short": "as §1"}, "EPLC-272H": {"system": "EPLC-272H", "in_short": "as §1"}, "NCI-H647": {"system": "NCI-H647", "in_short": "as §1"}, "HOP-62": {"system": "HOP-62", "in_short": "as §1"}, "NCI-H2085": {"system": "NCI-H2085", "in_short": "as §1"}, "NCI-H1563": {"system": "NCI-H1563", "in_short": "as §1"}, "RERF-LC-KJ": {"system": "RERF-LC-KJ", "in_short": "as §1"}, "NCI-H1993": {"system": "NCI-H1993", "in_short": "as §1"}, "COR-L 105": {"system": "COR-L 105", "in_short": "as §1"}, "NCI-H2087": {"system": "NCI-H2087", "in_short": "as §1"}, "NCI-H1975": {"system": "NCI-H1975", "in_short": "as §1"}, "PC-14": {"system": "PC-14", "in_short": "as §1"}, "NCI-H1651": {"system": "NCI-H1651", "in_short": "as §1"}, "NCI-H3122": {"system": "NCI-H3122", "in_short": "as §1"}, "NCI-H1395": {"system": "NCI-H1395", "in_short": "as §1"}, "LXF-289": {"system": "LXF-289", "in_short": "as §1"}, "NCI-H2023": {"system": "NCI-H2023", "in_short": "as §1"}, "COR-L23": {"system": "COR-L23", "in_short": "as §1"}, "SK-MES-1": {"system": "SK-MES-1", "in_short": "as §1"}, "A-427": {"system": "A-427", "in_short": "as §1"}, "NCI-H2170": {"system": "NCI-H2170", "in_short": "as §1"}}, "data": [{"smiles": "CCCCCCCCCCCC1=C(O)C(=O)C=C(O)C1=O", "note": "[Embelin] + CS(=O)(=O)N1CCN(Cc2cc3nc(-c4cccc5[nH]ncc45)nc(N4CCOCC4)c3s2)CC1 [Pictilisib] (partner 1 µM)", "values": [{"measurement": "relative viability", "setting": "NCI-H650; first compound 0.08 µM", "value": 0.939}, {"measurement": "relative viability", "setting": "NCI-H650; first compound 0.8 µM", "value": 1.1}, {"measurement": "relative viability", "setting": "NCI-H650; first compound 2.53 µM", "value": 1.06}, {"measurement": "relative viability", "setting": "NCI-H650; first compound 8 µM", "value": 0.896}, {"measurement": "relative viability", "setting": "CAL-12T; first compound 0.08 µM", "value": 0.49}, {"measurement": "relative viability", "setting": "CAL-12T; first compound 0.8 µM", "value": 0.587}, {"measurement": "relative viability", "setting": "CAL-12T; first compound 8 µM", "value": 0.391}, {"measurement": "relative viability", "setting": "LCLC-103H; first compound 0.08 µM", "value": 0.591}, {"measurement": "relative viability", "setting": "LCLC-103H; first compound 0.8 µM", "value": 0.652}, {"measurement": "relative viability", "setting": "LCLC-103H; first compound 2.53 µM", "value": 0.614}, {"measurement": "relative viability", "setting": "LCLC-103H; first compound 8 µM", "value": 0.677}, {"measurement": "relative viability", "setting": "NCI-H596; first compound 0.08 µM", "value": 0.389}, {"measurement": "relative viability", "setting": "NCI-H596; first compound 0.8 µM", "value": 0.432}, {"measurement": "relative viability", "setting": "NCI-H596; first compound 2.53 µM", "value": 0.481}, {"measurement": "relative viability", "setting": "NCI-H596; first compound 8 µM", "value": 0.357}, {"measurement": "relative viability", "setting": "EPLC-272H; first compound 0.08 µM", "value": 0.319}, {"measurement": "relative viability", "setting": "EPLC-272H; first compound 0.8 µM", "value": 0.427}, {"measurement": "relative viability", "setting": "EPLC-272H; first compound 2.53 µM", "value": 0.334}, {"measurement": "relative viability", "setting": "EPLC-272H; first compound 8 µM", "value": 0.276}, {"measurement": "relative viability", "setting": "NCI-H647; first compound 0.08 µM", "value": 0.423}, {"measurement": "relative viability", "setting": "NCI-H647; first compound 0.8 µM", "value": 0.59}, {"measurement": "relative viability", "setting": "NCI-H647; first compound 2.53 µM", "value": 0.403}, {"measurement": "relative viability", "setting": "NCI-H647; first compound 8 µM", "value": 0.285}, {"measurement": "relative viability", "setting": "HOP-62; first compound 0.08 µM", "value": 0.883}, {"measurement": "relative viability", "setting": "HOP-62; first compound 0.8 µM", "value": 0.964}, {"measurement": "relative viability", "setting": "HOP-62; first compound 2.53 µM", "value": 0.433}, {"measurement": "relative viability", "setting": "HOP-62; first compound 8 µM", "value": 0.503}, {"measurement": "relative viability", "setting": "NCI-H2085; first compound 0.08 µM", "value": 0.44}, {"measurement": "relative viability", "setting": "NCI-H2085; first compound 0.8 µM", "value": 0.404}, {"measurement": "relative viability", "setting": "NCI-H2085; first compound 2.53 µM", "value": 0.44}, {"measurement": "relative viability", "setting": "NCI-H2085; first compound 8 µM", "value": 0.46}, {"measurement": "relative viability", "setting": "NCI-H1563; first compound 0.08 µM", "value": 0.661}, {"measurement": "relative viability", "setting": "NCI-H1563; first compound 0.8 µM", "value": 0.786}, {"measurement": "relative viability", "setting": "NCI-H1563; first compound 2.53 µM", "value": 0.517}, {"measurement": "relative viability", "setting": "NCI-H1563; first compound 8 µM", "value": 0.659}, {"measurement": "relative viability", "setting": "RERF-LC-KJ; first compound 0.08 µM", "value": 0.494}, {"measurement": "relative viability", "setting": "RERF-LC-KJ; first compound 0.8 µM", "value": 0.652}, {"measurement": "relative viability", "setting": "RERF-LC-KJ; first compound 2.53 µM", "value": 0.618}, {"measurement": "relative viability", "setting": "RERF-LC-KJ; first compound 8 µM", "value": 0.587}, {"measurement": "relative viability", "setting": "NCI-H1993; first compound 0.08 µM", "value": 0.729}, {"measurement": "relative viability", "setting": "NCI-H1993; first compound 0.8 µM", "value": 0.733}, {"measurement": "relative viability", "setting": "NCI-H1993; first compound 2.53 µM", "value": 0.776}, {"measurement": "relative viability", "setting": "NCI-H1993; first compound 8 µM", "value": 0.803}, {"measurement": "relative viability", "setting": "COR-L 105; first compound 0.08 µM", "value": 0.338}, {"measurement": "relative viability", "setting": "COR-L 105; first compound 0.8 µM", "value": 0.484}, {"measurement": "relative viability", "setting": "COR-L 105; first compound 2.53 µM", "value": 0.424}, {"measurement": "relative viability", "setting": "COR-L 105; first compound 8 µM", "value": 0.392}, {"measurement": "relative viability", "setting": "NCI-H2087; first compound 0.08 µM", "value": 0.885}, {"measurement": "relative viability", "setting": "NCI-H2087; first compound 0.8 µM", "value": 0.96}, {"measurement": "relative viability", "setting": "NCI-H2087; first compound 2.53 µM", "value": 1.24}, {"measurement": "relative viability", "setting": "NCI-H2087; first compound 8 µM", "value": 0.827}, {"measurement": "relative viability", "setting": "NCI-H1975; first compound 0.08 µM", "value": 0.343}, {"measurement": "relative viability", "setting": "NCI-H1975; first compound 0.8 µM", "value": 0.332}, {"measurement": "relative viability", "setting": "NCI-H1975; first compound 2.53 µM", "value": 0.288}, {"measurement": "relative viability", "setting": "NCI-H1975; first compound 8 µM", "value": 0.288}, {"measurement": "relative viability", "setting": "PC-14; first compound 0.08 µM", "value": 0.669}, {"measurement": "relative viability", "setting": "PC-14; first compound 0.8 µM", "value": 0.804}, {"measurement": "relative viability", "setting": "PC-14; first compound 2.53 µM", "value": 1.16}, {"measurement": "relative viability", "setting": "PC-14; first compound 8 µM", "value": 0.717}, {"measurement": "relative viability", "setting": "NCI-H1651; first compound 0.08 µM", "value": 0.577}, {"measurement": "relative viability", "setting": "NCI-H1651; first compound 0.8 µM", "value": 0.647}, {"measurement": "relative viability", "setting": "NCI-H1651; first compound 2.53 µM", "value": 0.769}, {"measurement": "relative viability", "setting": "NCI-H1651; first compound 8 µM", "value": 0.607}, {"measurement": "relative viability", "setting": "NCI-H3122; first compound 0.08 µM", "value": 0.647}, {"measurement": "relative viability", "setting": "NCI-H3122; first compound 0.8 µM", "value": 0.605}, {"measurement": "relative viability", "setting": "NCI-H3122; first compound 2.53 µM", "value": 0.755}, {"measurement": "relative viability", "setting": "NCI-H3122; first compound 8 µM", "value": 0.616}, {"measurement": "relative viability", "setting": "NCI-H1395; first compound 0.08 µM", "value": 0.608}, {"measurement": "relative viability", "setting": "NCI-H1395; first compound 0.8 µM", "value": 0.677}, {"measurement": "relative viability", "setting": "NCI-H1395; first compound 2.53 µM", "value": 0.69}, {"measurement": "relative viability", "setting": "NCI-H1395; first compound 8 µM", "value": 0.502}, {"measurement": "relative viability", "setting": "LXF-289; first compound 0.08 µM", "value": 0.855}, {"measurement": "relative viability", "setting": "LXF-289; first compound 0.8 µM", "value": 0.794}, {"measurement": "relative viability", "setting": "LXF-289; first compound 2.53 µM", "value": 0.75}, {"measurement": "relative viability", "setting": "LXF-289; first compound 8 µM", "value": 0.819}, {"measurement": "relative viability", "setting": "NCI-H2023; first compound 0.08 µM", "value": 0.269}, {"measurement": "relative viability", "setting": "NCI-H2023; first compound 0.8 µM", "value": 0.242}, {"measurement": "relative viability", "setting": "NCI-H2023; first compound 2.53 µM", "value": 0.211}, {"measurement": "relative viability", "setting": "NCI-H2023; first compound 8 µM", "value": 0.243}, {"measurement": "relative viability", "setting": "COR-L23; first compound 0.08 µM", "value": 0.832}, {"measurement": "relative viability", "setting": "COR-L23; first compound 0.8 µM", "value": 0.958}, {"measurement": "relative viability", "setting": "COR-L23; first compound 2.53 µM", "value": 0.874}, {"measurement": "relative viability", "setting": "COR-L23; first compound 8 µM", "value": 0.93}, {"measurement": "relative viability", "setting": "SK-MES-1; first compound 0.08 µM", "value": 0.347}, {"measurement": "relative viability", "setting": "SK-MES-1; first compound 0.8 µM", "value": 0.421}, {"measurement": "relative viability", "setting": "SK-MES-1; first compound 2.53 µM", "value": 0.35}, {"measurement": "relative viability", "setting": "SK-MES-1; first compound 8 µM", "value": 0.359}, {"measurement": "relative viability", "setting": "A-427; first compound 0.08 µM", "value": 0.857}, {"measurement": "relative viability", "setting": "A-427; first compound 0.8 µM", "value": 0.862}, {"measurement": "relative viability", "setting": "A-427; first compound 2.53 µM", "value": 0.654}, {"measurement": "relative viability", "setting": "A-427; first compound 8 µM", "value": 0.656}, {"measurement": "relative viability", "setting": "NCI-H2170; first compound 0.08 µM", "value": 0.307}, {"measurement": "relative viability", "setting": "NCI-H2170; first compound 0.8 µM", "value": 0.325}, {"measurement": "relative viability", "setting": "NCI-H2170; first compound 2.53 µM", "value": 0.366}, {"measurement": "relative viability", "setting": "NCI-H2170; first compound 8 µM", "value": 0.286}]}]}
